From ChEMBL document CHEMBL2401661, “Cyanidin, a natural flavonoid, is an agonistic ligand for liver X receptor alpha and beta and reduces cellular lipid accumulation in macrophages and hepatocytes” (Bioorg Med Chem Lett, 2013)
Blank lines part the entries; values can stand above or below the molecule they belong to. Active and inactive are the calls of the source. The calls are words filed in the database; no cut-off is given here.

Key:
[1] = target: T1, Oxysterols receptor LXR-alpha (Homo sapiens) (UniProt Q13133); experiment: (§1) Binding affinity to human LXRalpha-LBD by surface plasmon resonance
T1 sequence (whole entry): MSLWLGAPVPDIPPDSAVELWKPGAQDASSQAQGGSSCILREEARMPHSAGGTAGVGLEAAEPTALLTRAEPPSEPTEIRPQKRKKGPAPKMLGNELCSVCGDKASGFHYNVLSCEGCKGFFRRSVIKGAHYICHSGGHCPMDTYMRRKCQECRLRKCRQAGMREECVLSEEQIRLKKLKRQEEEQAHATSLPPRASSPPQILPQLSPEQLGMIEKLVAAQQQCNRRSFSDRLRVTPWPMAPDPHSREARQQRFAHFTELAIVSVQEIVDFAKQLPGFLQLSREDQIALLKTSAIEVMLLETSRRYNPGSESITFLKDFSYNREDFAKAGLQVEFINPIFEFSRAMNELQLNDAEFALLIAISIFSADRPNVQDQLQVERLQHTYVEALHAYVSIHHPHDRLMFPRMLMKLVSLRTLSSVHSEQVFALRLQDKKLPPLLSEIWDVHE

[2] = target: T2, Oxysterols receptor LXR-beta (Homo sapiens, UniProt P55055); experiment: Agonist activity at human LXRbeta-LBD assessed as recruitment of co-activator peptide after 2 hrs by TR-FRET assay
[3] = target: T2, Oxysterols receptor LXR-beta; experiment: Binding affinity to human LXRbeta-LBD by surface plasmon resonance
[4] = target: T1, Oxysterols receptor LXR-alpha (Homo sapiens); experiment: (§2) Agonist activity at human LXRalpha-LBD assessed as recruitment of co-activator peptide after 2 hrs by TR-FRET assay
[5] = target: T3, Oxysterols receptor LXR-alpha (Homo sapiens, UniProt Q13133); experiment: as §2
T3 sequence (Q13133 whole entry): T1 sequence (whole entry)

[6] = target: T4, Liver X receptor (Homo sapiens) (UniProt Q13133+P55055); experiment: Agonist activity at LXR in human THP1 cells assessed as reduction in cellular triglyceride after 24 hrs; assay type: cell-based; settings: THP-1
[7] = target: T3, Oxysterols receptor LXR-alpha; experiment: as §1
[8] = target: T2, Oxysterols receptor LXR-beta; experiment: Agonist activity at LXRbeta in human HepG2 cells assessed as LXRbeta transcription at 50 to 100 uM after 24 hrs by RT-qPCR analysis; assay type: cell-based
[9] = target: T4, Liver X receptor (Homo sapiens); experiment: Agonist activity at LXR in human THP1 cells assessed as reduction in cellular triglyceride at 100 uM after 24 hrs; assay type: cell-based; set-up: scale not given: the % may be the effect or the level left; settings: THP-1
[10] = target: T4, Liver X receptor (Homo sapiens); experiment: Agonist activity at LXR in human HepG2 cells assessed as reduction in cellular triglyceride after 24 hrs; assay type: cell-based
[11] = target: T4, Liver X receptor (Homo sapiens); experiment: Agonist activity at LXR in human HepG2 cells assessed as upregulation of SREBP1C expression at 100 uM after 24 hrs by RT-qPCR analysis relative to control; assay type: cell-based
[12] = target: T4, Liver X receptor (Homo sapiens); experiment: Agonist activity at LXR in human HepG2 cells assessed as reduction in cellular triglyceride at 100 uM after 24 hrs; assay type: cell-based; set-up: scale not given: the % may be the effect or the level left
[13] = target: T4, Liver X receptor (Homo sapiens); experiment: Agonist activity at LXR in human HepG2 cells assessed as reduction in cellular cholesterol after 24 hrs; assay type: cell-based
[14] = target: T4, Liver X receptor (Homo sapiens); experiment: Agonist activity at LXR in human THP1 cells assessed as reduction in cellular cholesterol after 24 hrs; assay type: cell-based; settings: THP-1
[15] = target: T1, Oxysterols receptor LXR-alpha (Homo sapiens); experiment: Induction of LXRalpha transcription in human HepG2 cells at 50 to 100 uM after 24 hrs by RT-qPCR analysis relative to control; assay type: cell-based
[16] = target: T4, Liver X receptor (Homo sapiens); experiment: Agonist activity at LXR in human HepG2 cells assessed as upregulation of ABCA1 expression at 100 uM after 24 hrs by RT-qPCR analysis relative to control; assay type: cell-based
[17] = target: T4, Liver X receptor (Homo sapiens); experiment: Agonist activity at LXR in human HepG2 cells assessed as upregulation of ABCG5 expression at 100 uM after 24 hrs by RT-qPCR analysis relative to control; assay type: cell-based
[18] = target: T1, Oxysterols receptor LXR-alpha (Homo sapiens); experiment: Agonist activity at LXRalpha (unknown origin) expressed in CHOK1 cells assessed as induction of transactivation activity at 100 uM after 24 hrs by luciferase reporter gene assay relative to control; assay type: cell-based; settings: CHO-K1
[19] = target: T2, Oxysterols receptor LXR-beta; experiment: Agonist activity at LXRbeta (unknown origin) expressed in CHOK1 cells assessed as induction of transactivation activity at 100 uM after 24 hrs by luciferase reporter gene assay relative to control; assay type: cell-based; settings: CHO-K1
[20] = target: T1, Oxysterols receptor LXR-alpha (Homo sapiens); experiment: Agonist activity at LXRalpha (unknown origin) expressed in CHOK1 cells assessed as induction of transactivation activity at 50 uM after 24 hrs by luciferase reporter gene assay relative to control; assay type: cell-based; settings: CHO-K1

T2 sequence (P55055 whole entry, the tested form may be a part): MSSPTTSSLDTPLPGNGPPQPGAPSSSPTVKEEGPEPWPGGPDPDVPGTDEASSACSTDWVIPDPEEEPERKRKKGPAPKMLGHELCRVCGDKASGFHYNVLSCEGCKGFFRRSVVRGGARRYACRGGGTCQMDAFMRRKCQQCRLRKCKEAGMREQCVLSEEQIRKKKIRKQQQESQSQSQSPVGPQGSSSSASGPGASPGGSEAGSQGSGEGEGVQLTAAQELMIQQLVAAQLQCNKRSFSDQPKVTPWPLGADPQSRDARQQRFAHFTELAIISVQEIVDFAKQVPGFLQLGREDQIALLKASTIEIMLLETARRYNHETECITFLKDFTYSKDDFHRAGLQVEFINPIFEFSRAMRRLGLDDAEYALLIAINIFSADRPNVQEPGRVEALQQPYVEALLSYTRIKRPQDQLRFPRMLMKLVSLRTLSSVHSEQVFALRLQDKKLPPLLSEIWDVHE
T4 sequence (P55055 whole entry, looked up, one chain of several): as the sequence (P55055 whole entry, the tested form may be a part) above

- Activity [1]: inactive
- Activity [2]: inactive
- Activity [3]: inactive
- Activity [4]: inactive
Compound: O=C(O)c1ccc(O)c(O)c1

- Activity [1]: inactive
- Activity [2]: inactive
- Activity [3]: inactive
- Activity [4]: inactive
Compound: O=Cc1c(O)cc(O)cc1O

Compound: CC(C)CC[C@@H](O)[C@@H](C)[C@H]1CC[C@H]2[C@@H]3CC=C4C[C@@H](O)CC[C@]4(C)[C@H]3CC[C@]12C [22(R)-HYDROXYCHOLESTEROL]
- EC50 [5]: 1 µM

- Activity [6]: Dose-dependent effect
- Kd [7]: 2.2 µM
- Activity [8]: inactive
- Activity [9]: -21%
- Activity [10]: Dose-dependent effect
- EC50 [2]: 125 µM
- fold change (FC) [11]: 3.6
- Activity [12]: -23%
- Activity [13]: Dose-dependent effect
- Activity [14]: Dose-dependent effect
- fold change (FC) [15]: 1.5
- fold change (FC) [16]: 2.5
- Kd [3]: 73.2 µM
- EC50 [5]: 3.5 µM
- fold change (FC) [17]: 1.4
- Activity [18]: 59%
- Activity [19]: 33%
- Activity [20]: 32%
Compound: Oc1cc(O)c2cc(O)c(-c3ccc(O)c(O)c3)[o+]c2c1 [CYANIDIN]
